Tests used:
B-RAF V600E = biological target: T1, B-RAF V600E (Homo sapiens, UniProt P15056, V600E); test: Target protein degradation, assay C: T-Rex 293 cells, HA-BRAF_V600E, 384 well format; type: cell-based; details: T-Rex 293 HA-BRAF_V600E cells, 24 hours, Examples 83-269; for DC50: Assay C; for Dmax: T-REx-293, Assay C
T1 construct: expressed in transfected cells; host or cells: T-Rex 293 cells (Invitrogen #R71007)
Outline: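 After 24 h exposure to an 11-point 1:3 series (300 nM–5 pM, 0.5% DMSO), fixed T-Rex 293 cells carrying HA-BRAF V600E (induced with 1 ng/mL doxycycline) were stained anti-HA and imaged. DC50 and Dmax were derived from BRAF intensity relative to control, and cytotoxicity from nuclear counts.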

B-RAF G466V = biological target: T2, B-RAF G466V (Homo sapiens, UniProt P15056, G466V); test: Target protein degradation, assay D: T-Rex 293 cells, HA-BRAF_G466V, 384 well format; type: cell-based; details: T-Rex 293 HA-BRAF_G466V cells, 24 hours, Examples 83-269; for DC50: Assay D; for Dmax: T-REx-293, Assay D
T2 construct: expressed in transfected cells; host or cells: T-Rex 293 cells (Invitrogen #R71007)
Outline: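 Degradation measured by high-content imaging of anti-HA immunofluorescence in fixed T-Rex 293 cells carrying inducible HA-BRAF G466V (1 ng/mL doxycycline), after 24 h PROTAC exposure at 37 °C over 300 nM–5 pM (1:3, 11 points, 0.5% DMSO). Outputs DC50 and Dmax as % of control; nuclei counts against DMSO wells gauge toxicity.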

T2 sequence (P15056 whole entry G466V): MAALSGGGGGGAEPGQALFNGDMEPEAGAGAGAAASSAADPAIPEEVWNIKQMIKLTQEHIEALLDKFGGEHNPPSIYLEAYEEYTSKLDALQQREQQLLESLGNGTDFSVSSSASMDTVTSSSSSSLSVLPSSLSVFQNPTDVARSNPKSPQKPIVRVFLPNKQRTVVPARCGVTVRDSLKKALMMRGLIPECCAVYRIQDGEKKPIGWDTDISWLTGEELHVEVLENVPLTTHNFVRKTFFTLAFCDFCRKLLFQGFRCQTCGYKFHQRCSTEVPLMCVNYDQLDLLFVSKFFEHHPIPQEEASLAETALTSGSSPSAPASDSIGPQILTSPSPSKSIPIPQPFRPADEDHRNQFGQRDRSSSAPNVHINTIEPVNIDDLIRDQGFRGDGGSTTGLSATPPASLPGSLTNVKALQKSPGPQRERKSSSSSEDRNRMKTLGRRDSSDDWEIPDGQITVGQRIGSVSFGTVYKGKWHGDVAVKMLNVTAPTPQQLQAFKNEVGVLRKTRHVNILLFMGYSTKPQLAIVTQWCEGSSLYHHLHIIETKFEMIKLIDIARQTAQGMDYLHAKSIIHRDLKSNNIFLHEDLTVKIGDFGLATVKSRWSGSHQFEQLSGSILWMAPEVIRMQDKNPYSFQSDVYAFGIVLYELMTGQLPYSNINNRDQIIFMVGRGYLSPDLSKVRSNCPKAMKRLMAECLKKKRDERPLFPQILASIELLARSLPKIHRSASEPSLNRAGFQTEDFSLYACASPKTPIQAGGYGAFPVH
T1 sequence (P15056 whole entry V600E): as the sequence (P15056 whole entry G466V) above, with V466G, V600E counted along it

SMILES	DC50 (B-RAF V600E)	Dmax (B-RAF V600E)	DC50 (B-RAF G466V)	Dmax (B-RAF G466V)
N#Cc1c(NS(=O)(=O)N2CC[C@@H](F)C2)ccc(F)c1Oc1ccc2ncn(-c3ccc(N4CCC(O[C@H]5C[C@H](N6CCC(c7ccc8c(c7)CN(C7CCC(=O)NC7=O)C8=O)CC6)C5)CC4)cc3)c(=O)c2c1 (stereo partly drawn) [Example 253, (3R)-N-(2-cyano-4-fluoro-3-{[4-oxo-3-(4-{4-[(1r,3r)-3-{4-[2-(2,6-dioxopiperidin-3-yl)-1-oxo-2,3-dihydro-1H-isoindol-5-yl]piperidin-1-yl}cyclobutoxy]piperidin-1-yl}phenyl)-3,4-dihydroquinazolin-6-yl]oxy}phenyl)-3-fluoropyrrolidine-1-sulfonamide]	50 to 500 nM	35 to 70%	1 to 10 nM	35 to 70%
N#Cc1c(NS(=O)(=O)N2CC[C@@H](F)C2)ccc(F)c1Oc1ccc2ncn(-c3ccc(N4CC(CN5CCN(C6CCN(c7ccc8c(c7)C(=O)N(C7CCC(=O)NC7=O)C8=O)CC6)CC5)C4)nc3)c(=O)c2c1 (stereo partly drawn) [Example 170, (3R)-N-(2-cyano-3-{[3-(6-{3-[(4-{1-[2-(2,6-dioxopiperidin-3-yl)-1,3-dioxo-2,3-dihydro-1H-isoindol-5-yl]piperidin-4-yl}piperazin-1-yl)methyl]azetidin-1-yl}pyridin-3-yl)-4-oxo-3,4-dihydroquinazolin-6-yl]oxy}-4-fluorophenyl)-3-fluoropyrrolidine-1-sulfonamide]	5 to 50 nM	≤ 35%	1 to 10 nM	≤ 35%
COCCN(CC1CCN(c2ccc(-n3cnc4ccc(Oc5c(F)ccc(NS(=O)(=O)N6CC[C@@H](F)C6)c5C#N)cc4c3=O)cc2)CC1)[C@H]1C[C@@H](Oc2ccc3c(c2)CN([C@H]2CCC(=O)NC2=O)C3=O)C1 [Example 267, (3R)-N-[2-cyano-4-fluoro-3-({3-[4-(4-{[(2-methoxyethyl)[(1r,3r)-3-({2-[(3S)-2,6-dioxopiperidin-3-yl]-1-oxo-2,3-dihydro-1H-isoindol-5-yl}oxy)cyclobutyl]amino]methyl}piperidin-1-yl)phenyl]-4-oxo-3,4-dihydroquinazolin-6-yl}oxy)phenyl]-3-fluoropyrrolidine-1-sulfonamide]	50 to 500 nM	35 to 70%	10 to 30 nM	35 to 70%
CCN(CC1CCN(c2ccc(-n3cnc4ccc(Oc5c(F)ccc(NS(=O)(=O)N6CC[C@@H](F)C6)c5C#N)cc4c3=O)cc2)CC1)[C@H]1C[C@@H](Oc2ccc3c(c2)CN([C@H]2CCC(=O)NC2=O)C3=O)C1 [Example 264, (3R)-N-{2-cyano-3-[(3-{4-[4-({ethyl[(1r,3r)-3-({2-[(3S)-2,6-dioxopiperidin-3-yl]-1-oxo-2,3-dihydro-1H-isoindol-5-yl}oxy)cyclobutyl]amino}methyl)piperidin-1-yl]phenyl}-4-oxo-3,4 dihydroquinazolin-6-yl)oxy]-4-fluorophenyl}-3-fluoropyrrolidine-1-sulfonamide]	50 to 500 nM	35 to 70%	1 to 10 nM	35 to 70%
N#Cc1c(NS(=O)(=O)N2CC[C@@H](F)C2)ccc(F)c1Oc1ccc2ncn(-c3ccc(N4CCN(c5ccc6c(c5)C(=O)N(C5CCC(=O)NC5=O)C6=O)CC4)nc3)c(=O)c2c1 (stereo partly drawn) [Example 161, (3R)-N-(2-cyano-3-{[3-(6-{4-[2-(2,6-dioxopiperidin-3-yl)-1,3-dioxo-2,3-dihydro-1H-isoindol-5-yl]piperazin-1-yl}pyridin-3-yl)-4-oxo-3,4-dihydroquinazolin-6-yl]oxy}-4-fluorophenyl)-3-fluoropyrrolidine-1-sulfonamide]	50 to 500 nM	35 to 70%	1 to 10 nM	≤ 35%
N#Cc1c(NS(=O)(=O)N2CC[C@@H](F)C2)ccc(F)c1Oc1ccc2ncn(-c3ccc(N4CC5(CN(CC6CCN(c7cccc8c7C(=O)N(C7CCC(=O)NC7=O)C8=O)CC6)C5)C4)nc3)c(=O)c2c1 (stereo partly drawn) [Example 174, (3R)-N-{2-cyano-3-[(3-{6-[6-({1-[2-(2,6-dioxopiperidin-3-yl)-1,3-dioxo-2,3-dihydro-1H-isoindol-4-yl]piperidin-4-yl}methyl)-2,6-diazaspiro[3.3]heptan-2-yl]pyridin-3-yl}-4-oxo-3,4-dihydroquinazolin-6-yl)oxy]-4-fluorophenyl}-3-fluoropyrrolidine-1-sulfonamide]	50 to 500 nM	35 to 70%	1 to 10 nM	≤ 35%
N#Cc1c(NS(=O)(=O)N2CC[C@@H](F)C2)ccc(F)c1Oc1ccc2ncn(-c3ccc(N4CCC(CN5CCC(Oc6ccc7c(c6)C(=O)N(C6CCC(=O)NC6=O)C7=O)CC5)CC4)nc3)c(=O)c2c1 (stereo partly drawn) [Example 149, (3R)-N-(2-cyano-3-{[3-(6-{4-[(4-{[2-(2,6-dioxopiperidin-3-yl)-1,3-dioxo-2,3-dihydro-1H-isoindol-5-yl]oxy}piperidin-1-yl)methyl]piperidin-1-yl}pyridin-3-yl)-4-oxo-3,4-dihydroquinazolin-6-yl]oxy}-4-fluorophenyl)-3-fluoropyrrolidine-1-sulfonamide]	5 to 50 nM	≤ 35%	10 to 30 nM	35 to 70%
N#Cc1c(NS(=O)(=O)N2CC[C@@H](F)C2)ccc(F)c1Oc1ccc2ncn(-c3ccc(N4CCN(CC5CCN(c6ccc(C7CCC(=O)NC7=O)cn6)CC5)CC4)cc3)c(=O)c2c1 (stereo partly drawn) [Example 91, (3R)-N-{2-cyano-3-[(3-(4-[4-({1-[5-(2,6-dioxopiperidin-3-yl)pyridin-2-yl]piperidin-4-yl}methyl)piperazin-1-yl]phenyl}-4-oxo-3,4-dihydroquinazolin-6-yl)oxy]-4-fluorophenyl}-3-fluoropyrrolidine-1-sulfonamide]	5 to 50 nM	35 to 70%	1 to 10 nM	≤ 35%
O=C1CCC(N2Cc3cc(N4CCC(CN5CCN(c6ccc(-n7cnc8ccc(Oc9c(F)ccc(NS(=O)(=O)N%10CC[C@@H](F)C%10)c9F)cc8c7=O)cc6)CC5)CC4)ccc3C2=O)C(=O)N1 (stereo partly drawn) [Example 177, (3R)—N-{3-[(3-{4-[4-({1-[2-(2,6-dioxopiperidin-3-yl)-1-oxo-2,3-dihydro-1H-isoindol-5-yl]piperidin-4-yl}methyl)piperazin-1-yl]phenyl}-4-oxo-3,4-dihydroquinazolin-6-yl)oxy]-2,4-difluorophenyl}-3-fluoropyrrolidine-1-sulfonamide]	5 to 50 nM	35 to 70%	1 to 10 nM	35 to 70%
N#Cc1c(NS(=O)(=O)N2CC[C@@H](F)C2)ccc(F)c1Oc1ccc2ncn(-c3ccc(N4CCN(CC5CCN(c6ccc7c(c6)CN(C6CCC(=O)NC6=O)C7=O)CC5)CC4)c(F)c3)c(=O)c2c1 (stereo partly drawn) [Example 86, (3R)-N-{2-cyano-3-[(3-(4-[4-({1-[2-(2,6-dioxopiperidin-3-yl)-1-oxo-2,3-dihydro-1H-isoindol-5-yl]piperidin-4-yl}methyl)piperazin-1-yl]-3-fluorophenyl}-4-oxo-3,4-dihydroquinazolin-6-yl)oxy]-4-fluorophenyl}-3-fluoropyrrolidine-1-sulfonamide]	5 to 50 nM	35 to 70%	≤ 1 nM	≤ 35%
